Data published in patent US12478601B2, “Dietary product devoid of at least two non essential amino acids” (CANCER RESEARCH TECHNOLOGY LIMITED, priority 2016, dated 2025).

Test system: MDA-MB-231 cells
Assay: Cysteine starvation of MDA-MB-231 cells after AMD1 inhibitor pre-treatment
Type: cell-based
Conditions: 20 uM for 16 h before medium lacking cysteine
Procedure: FIG. 40. […] MDA-MB-231 cells were initially seeded in complete (DMEM) medium in 24-well plates. After 24 h, cells were treated with AMD1 inhibitor Sardomozide (20 uM) for 16 h or left untreated (Ctr). Cells were then washed with PBS and given medium lacking cysteine but containing all 19 other amino acids. Images (panel a) were captured using a light microscope, and cell counts (panel b) were performed using a CASY TT cell counter. Data are average of three wells. Error bars=STDEV.
Cells (4×10^4-1×10^5) were seeded in complete RPMI or DMEM medium in 24-well plates and allowed to adhere overnight. Cells were then washed with PBS and received assay medium supplemented with the stated amino acids/metabolites/drugs. Assay medium was formulated based on RPMI-1640 medium but lacking amino acids, which were added individually depending on the assay. Assay medium was also supplemented with additional vitamin B6 (20 uM), a co-factor for cysteine synthesis. Cells were counted (using Casy TT cell counter, Innovatis, Roche Applied Science) at the stated time-points, using a “time=0” plate to calculate relative cell number from time of medium change.

In the case of `N=C(N)N/N=C1\CCc2c(C(=N)N)cccc21` [Sardomozide], the “protection from cell death in cysteine starvation” value is reported as “protects cells from acute sensitivity (i.e. cell death) to cysteine starvation”.
